From US20170362283A1, “NISIN-BASED COMPOUNDS AND USE THEREOF IN THE TREATMENT OF BACTERIAL INFECTIONS” (UNIVERSITEIT UTRECHT HOLDING B.V., priority 2015, published 2017)
≈ marks a conversion by molar mass, not a printed value.

Tests used:
Conditions in all cases: duplicate experiments
VRE 155 = format: cell-based
Experimental: (§1) Determining the MIC value is a standard technique well known to the skilled person, in particular the MIC value can be measured using method M07-A9 (CLSI standard, January 2012, Vol. 32, No. 2, “Methods for Dilution Antimicrobial Susceptibility Tests for Bacteria That Grow Aerobically”).
(§2) Different microorganisms (from glycerol stock) were plated out on blood agar and incubated at 37° C. for 24 hours. A colony was selected and 2×5 mL of TSB was inoculated. The samples and a sterile control were cultured for 16-20 hours at 37° C. Comparative compound B is nisin acting as a control. Comparative compound C is vancomycin, also acting as a control. Comparative compounds A, D and E are also control compounds not part of the present invention.
(§3) The overnight cultures were diluted to 0.5×10^6 CFU in TSB. 50 μL of the bacterial solution was added to each well and the plates were sealed with an adhesive membrane and incubated at 37° C. for 16 hours. The next day, the plates were visually inspected for bacterial growth.

MRSA USA300 = format: cell-based, Staphylococcus aureus
Experimental: as §1, §2, §3

S. aureus = system: S. aureus
Experimental: as §1
as §2, with “Comparative compound C is vancomycin, also acting as a control.” left out
as §3

E. coli = system: E. coli
Experimental: as §1
as §2, with “Comparative compound C is vancomycin, also acting as a control.” left out
as §3

B. subtilis = system: B. subtilis
Experimental: as §1
as §2, with “Comparative compound C is vancomycin, also acting as a control.” left out
as §3

Structure (SMILES)	MIC values VRE 155 (VRE 155) [µg/mL]	MIC values MRSA USA300 (MRSA USA300) [µg/mL]	MIC values S. aureus (S. aureus) [µg/mL]	MIC values E. coli (E. coli) [µg/mL]	MIC values B. subtilis (B. subtilis) [µg/mL]
C=C1NC(=O)[C@H]([C@@H](C)CC)NC(=O)[C@H](NC(=O)C(=CC)NC(=O)[C@@H](N)[C@@H](C)CC)CSC[C@@H](C(=O)N[C@H]2C(=O)N3CCC[C@H]3C(=O)NCC(=O)N[C@H](C(=O)N[C@@H](CCCCNC(=O)CCCCCCCC)C(=O)NC)CS[C@H]2C)NC(=O)[C@H](CC(C)C)NC1=O [(19)]	8 (≈ 6.14 µM)	32 (≈ 24.5 µM)	–	–	–
C=C1NC(=O)[C@H]([C@@H](C)CC)NC(=O)[C@H](NC(=O)C(=CC)NC(=O)[C@@H](N)[C@@H](C)CC)CSC[C@@H](C(=O)N[C@H]2C(=O)N3CCC[C@H]3C(=O)NCC(=O)N[C@H](C(=O)N[C@@H](CCCCN)C(=O)NCCCCCCCCCCCCCCC)CS[C@H]2C)NC(=O)[C@H](CC(C)C)NC1=O [(11)]	8 (≈ 5.88 µM)	64 (≈ 47.1 µM)	32 (≈ 23.5 µM)	>64	8 (≈ 5.88 µM)
C=C1NC(=O)[C@H]([C@@H](C)CC)NC(=O)[C@H](NC(=O)C(=CC)NC(=O)[C@@H](NC(=O)CCN)[C@@H](C)CC)CSC[C@@H](C(=O)N[C@H]2C(=O)N3CCC[C@H]3C(=O)NCC(=O)N[C@H](C(=O)N[C@@H](CCCCNC(=O)CCN)C(=O)NCCCCCCCCCCCC)CS[C@H]2C)NC(=O)[C@H](CC(C)C)NC1=O [(22)]	8 (≈ 5.48 µM)	16 (≈ 11 µM)	–	–	–
C=C1NC(=O)[C@H]([C@@H](C)CC)NC(=O)[C@H](NC(=O)C(=CC)NC(=O)[C@@H](N)[C@@H](C)CC)CSC[C@@H](C(=O)N[C@H]2C(=O)N3CCC[C@H]3C(=O)NCC(=O)N[C@H](C(=O)N[C@@H](CCCCN)C(=O)NCCCCCCCCCCC)CS[C@H]2C)NC(=O)[C@H](CC(C)C)NC1=O [(7)]	4 (≈ 3.07 µM)	16 (≈ 12.3 µM)	8 (≈ 6.14 µM)	>64	4 (≈ 3.07 µM)
C=C1NC(=O)[C@H]([C@@H](C)CC)NC(=O)[C@H](NC(=O)C(=CC)NC(=O)[C@@H](N)[C@@H](C)CC)CSC[C@@H](C(=O)N[C@H]2C(=O)N3CCC[C@H]3C(=O)NCC(=O)N[C@H](C(=O)N[C@@H](CCCCN)C(=O)N[C@@H](Cc3c[nH]c4ccccc34)C(=O)NCCCCCCCCCC)CS[C@H]2C)NC(=O)[C@H](CC(C)C)NC1=O [(15)]	2 (≈ 1.36 µM)	8 (≈ 5.42 µM)	8 (≈ 5.42 µM)	>64	4 (≈ 2.71 µM)
C=C1NC(=O)[C@H]([C@@H](C)CC)NC(=O)[C@H](NC(=O)C(=CC)NC(=O)[C@@H](N)[C@@H](C)CC)CSC[C@@H](C(=O)N[C@H]2C(=O)N3CCC[C@H]3C(=O)NCC(=O)N[C@H](C(=O)N[C@@H](CCCCN)C(=O)NCc3ccc(-c4ccc(Cl)cc4)cc3)CS[C@H]2C)NC(=O)[C@H](CC(C)C)NC1=O [(13)]	4 (≈ 2.96 µM)	8 (≈ 5.93 µM)	–	–	2 to 4
C=C1NC(=O)[C@H]([C@@H](C)CC)NC(=O)[C@H](NC(=O)C(=CC)NC(=O)[C@@H](N)[C@@H](C)CC)CSC[C@@H](C(=O)N[C@H]2C(=O)N3CCC[C@H]3C(=O)NCC(=O)N[C@H](C(=O)N[C@@H](CCCCN)C(=O)NCCCCCCCCC)CS[C@H]2C)NC(=O)[C@H](CC(C)C)NC1=O [(5)]	8 to 16	32 (≈ 25.1 µM)	16 (≈ 12.5 µM)	64 (≈ 50.2 µM)	8 (≈ 6.27 µM)
C=C1NC(=O)[C@H]([C@@H](C)CC)NC(=O)[C@H](NC(=O)C(=CC)NC(=O)[C@@H](N)[C@@H](C)CC)CSC[C@@H](C(=O)N[C@H]2C(=O)N3CCC[C@H]3C(=O)NCC(=O)N[C@H](C(=O)N[C@@H](CCCCN)C(=O)NCCCCCCCCCCCC)CS[C@H]2C)NC(=O)[C@H](CC(C)C)NC1=O [(8)]	2 (≈ 1.52 µM)	4 (≈ 3.04 µM)	4 to 8	>64	4 (≈ 3.04 µM)
C=C1NC(=O)[C@H]([C@@H](C)CC)NC(=O)[C@H](NC(=O)C(=CC)NC(=O)[C@@H](N)[C@@H](C)CC)CSC[C@@H](C(=O)N[C@H]2C(=O)N3CCC[C@H]3C(=O)NCC(=O)N[C@H](C(=O)N[C@@H](CCCCN)C(=O)NCCCCCCC)CS[C@H]2C)NC(=O)[C@H](CC(C)C)NC1=O [(3)]	8 (≈ 6.41 µM)	64 (≈ 51.3 µM)	64 (≈ 51.3 µM)	>64	16 (≈ 12.8 µM)
C=C1NC(=O)[C@H]([C@@H](C)CC)NC(=O)[C@H](NC(=O)C(=CC)NC(=O)[C@@H](N)[C@@H](C)CC)CSC[C@@H](C(=O)N[C@H]2C(=O)N3CCC[C@H]3C(=O)NCC(=O)N[C@H](C(=O)N[C@@H](CCCCN)C(=O)NCCCCCCCC)CS[C@H]2C)NC(=O)[C@H](CC(C)C)NC1=O [(4)]	16 (≈ 12.7 µM)	64 (≈ 50.7 µM)	–	–	–
C=C1NC(=O)[C@H]([C@@H](C)CC)NC(=O)[C@H](NC(=O)C(=CC)NC(=O)[C@@H](N)[C@@H](C)CC)CSC[C@@H](C(=O)N[C@H]2C(=O)N3CCC[C@H]3C(=O)NCC(=O)N[C@H](C(=O)N[C@@H](CCCCN)C(=O)N[C@@H](Cc3ccccc3)C(=O)NCCCCCCCCCC)CS[C@H]2C)NC(=O)[C@H](CC(C)C)NC1=O [(16)]	2 (≈ 1.39 µM)	8 (≈ 5.57 µM)	8 (≈ 5.57 µM)	>64	4 (≈ 2.78 µM)
C=C1NC(=O)[C@H]([C@@H](C)CC)NC(=O)[C@H](NC(=O)C(=CC)NC(=O)[C@@H](N)[C@@H](C)CC)CSC[C@@H](C(=O)N[C@H]2C(=O)N3CCC[C@H]3C(=O)NCC(=O)N[C@H](C(=O)N[C@@H](CCCCN)C(=O)NCCCN=[N+]=[N-])CS[C@H]2C)NC(=O)[C@H](CC(C)C)NC1=O [E, Nisin [1-12]-azide, reference compound]	–	–	>128	>128	>128
C=C1NC(=O)[C@H]([C@@H](C)CC)NC(=O)[C@H](NC(=O)C(=CC)NC(=O)[C@@H](N)[C@@H](C)CC)CSC[C@@H](C(=O)N[C@H]2C(=O)N3CCC[C@H]3C(=O)NCC(=O)N[C@H](C(=O)N[C@@H](CCCCN)C(=O)NC)CS[C@H]2C)NC(=O)[C@H](CC(C)C)NC1=O [D, reference compound]	–	–	>128	>128	>128
C=C1NC(=O)[C@H]([C@@H](C)CC)NC(=O)[C@H](NC(=O)C(=CC)NC(=O)[C@@H](N)[C@@H](C)CC)CSC[C@@H](C(=O)N[C@H]2C(=O)N3CCC[C@H]3C(=O)NCC(=O)N[C@H](C(=O)N[C@@H](CCCCN)C(=O)N[C@@H](Cc3ccc(O)cc3)C(=O)NCCCCCCCCCC)CS[C@H]2C)NC(=O)[C@H](CC(C)C)NC1=O [(18)]	2 (≈ 1.38 µM)	8 (≈ 5.51 µM)	4 to 8	>64	4 (≈ 2.75 µM)
C=C1NC(=O)[C@H]([C@@H](C)CC)NC(=O)[C@H](NC(=O)C(=CC)NC(=O)[C@@H](N)[C@@H](C)CC)CSC[C@@H](C(=O)N[C@H]2C(=O)N3CCC[C@H]3C(=O)NCC(=O)N[C@H](C(=O)N[C@@H](CCCCN)C(=O)NCCC[N+](C)(C)CCCCCCCCCC)CS[C@H]2C)NC(=O)[C@H](CC(C)C)NC1=O [(14)]	4	8	4	>64	4
C=C1NC(=O)[C@H]([C@@H](C)CC)NC(=O)[C@H](NC(=O)C(=CC)NC(=O)[C@@H](N)[C@@H](C)CC)CSC[C@@H](C(=O)N[C@H]2C(=O)N3CCC[C@H]3C(=O)NCC(=O)N[C@H](C(=O)N[C@@H](CCCCN)C(=O)N[C@@H](Cc3c[nH]cn3)C(=O)NCCCCCCCCCC)CS[C@H]2C)NC(=O)[C@H](CC(C)C)NC1=O [(17)]	4 (≈ 2.8 µM)	8 (≈ 5.61 µM)	–	–	–
C=C1NC(=O)[C@H]([C@@H](C)CC)NC(=O)[C@H](NC(=O)C(=CC)NC(=O)[C@@H](N)[C@@H](C)CC)CSC[C@@H](C(=O)N[C@H]2C(=O)N3CCC[C@H]3C(=O)NCC(=O)N[C@H](C(=O)N[C@@H](CCCCNC(=O)CCN)C(=O)NCCCCCCCCCCCC)CS[C@H]2C)NC(=O)[C@H](CC(C)C)NC1=O [(21)]	4 (≈ 2.88 µM)	8 (≈ 5.76 µM)	–	–	–
C=C1NC(=O)[C@H]([C@@H](C)CC)NC(=O)[C@H](NC(=O)C(=CC)NC(=O)[C@@H](N)[C@@H](C)CC)CSC[C@@H](C(=O)N[C@H]2C(=O)N3CCC[C@H]3C(=O)NCC(=O)N[C@H](C(=O)N[C@@H](CCCCN)C(=O)NCCCCCCCCCCCCC)CS[C@H]2C)NC(=O)[C@H](CC(C)C)NC1=O [(9)]	2 (≈ 1.5 µM)	4 (≈ 3 µM)	8 (≈ 6.01 µM)	>64	4 (≈ 3 µM)
